Reference: BindingDB's records for doi:10.1111/j.1747-0285.2012.01443.x (Pfizer, 2012)
pIC50: −log10 of the molar value.

Biological target: Tyrosine-protein kinase SYK (Homo sapiens, UniProt P43405)
Assay: Syk Enzyme Assay
Conditions: pH 7.4; 25 °C
From the text: A Lance TR-FRET assay (Perkin Elmer) was used to measure and compare the potency of compounds against Syk kinase domain.

pIC50: 6.49
SMILES: COc1cc2nccc(Oc3ccc(NC(=O)N[C@@H]4C[C@H]4c4ccccc4)nc3)c2cc1OC [Dimethoxyquinoline, 1]
